In PMC4303209, “A novel phosphatidylinositol 3-kinase (PI3K) inhibitor directs a potent FOXO-dependent, p53-independent cell cycle arrest phenotype characterized by the differential induction of a subset of FOXO-regulated genes” (Breast Cancer Research : BCR, 2014):

Tested on: MCF-7 breast cancer cells
Assay: Microarray gene expression analysis (Agilent whole human genome 4 x 44K; compound vs DMSO, LIMMA log2 fold change)
Format: cell-based
Details: cell cycle genes

## Cn1ncc2c(N3CCOCC3)nc(-c3cccc(O)c3)nc21 [ETP-45658]
Gene 994
  CDC25B log2FC: -0.243
Gene 995
  CDC25C log2FC: 1.417
Gene 997
  CDC34 log2FC: 0.349
Gene 998
  CDC42 log2FC: 0.143
Gene 1017
  CDK2 log2FC: -0.519
Gene 1018
  CDK3 log2FC: -0.108
Gene 1019
  CDK4 log2FC: 0.113
Gene 1020
  CDK5 log2FC: -0.089
Gene 1022
  CDK7 log2FC: 0.920
Gene 1026
  CDKN1A log2FC: -1.401
Gene 1027
  CDKN1B log2FC: 1.129
Gene 1028
  CDKN1C log2FC: 0.689
Gene 1029
  CDKN2A log2FC: 0.240
Gene 1032
  CDKN2D log2FC: 0.891
Gene 1033
  CDKN3 log2FC: 0.104
Gene 1058
  CENPA log2FC: 0.094
Gene 1062
  CENPE log2FC: 1.101
Gene 1063
  CENPF log2FC: 1.562
Gene 1069
  CETN2 log2FC: 0.059
Gene 1107
  CHD3 log2FC: -0.048
Gene 1111
  CHEK1 log2FC: 0.461
Gene 1163
  CKS1B log2FC: 0.101
Gene 1164
  CKS2 log2FC: -0.752
Gene 1213
  CLTC log2FC: 0.237
Gene 1263
  PLK3 log2FC: -1.808
Gene 1386
  ATF2 log2FC: 0.857
Gene 1389
  CREBL2 log2FC: 0.823
Gene 1432
  MAPK14 log2FC: -0.291
Gene 1452
  CSNK1A1 log2FC: 0.166
Gene 1453
  CSNK1D log2FC: -0.308
Gene 1454
  CSNK1E log2FC: -0.533
Gene 1457
  CSNK2A1 log2FC: -0.545
Gene 1487
  CTBP1 log2FC: -0.371
Gene 1490
  CTGF log2FC: -0.597
Gene 1540
  CYLD log2FC: 0.499
Gene 1594
  CYP27B1 log2FC: -0.054
Gene 1613
  DAPK3 log2FC: -0.132
Gene 1642
  DDB1 log2FC: 0.227
Gene 1649
  DDIT3 log2FC: 2.364
Gene 1654
  DDX3X log2FC: -1.156
Gene 1718
  DHCR24 log2FC: -0.643
Gene 1719
  DHFR log2FC: 0.876
Gene 1739
  DLG1 log2FC: 0.053
Gene 1761
  DMRT1 log2FC: 0.148
Gene 1781
  DYNC1I2 log2FC: 0.828
Gene 1785
  DNM2 log2FC: -0.047
Gene 1814
  DRD3 log2FC: -0.082
Gene 1843
  DUSP1 log2FC: -0.931
Gene 1845
  DUSP3 log2FC: 0.560
Gene 1859
  DYRK1A log2FC: 0.448
Gene 1869
  E2F1 log2FC: -0.356
Gene 1870
  E2F2 log2FC: -0.581
Gene 1871
  E2F3 log2FC: -0.373
Gene 1874
  E2F4 log2FC: -0.621
Gene 1875
  E2F5 log2FC: 0.382
Gene 1876
  E2F6 log2FC: -0.321
Gene 1877
  E4F1 log2FC: 0.414
Gene 1894
  ECT2 log2FC: 1.058
Gene 1908
  EDN3 log2FC: -0.056
Gene 1950
  EGF log2FC: -0.024
Gene 1956
  EGFR log2FC: 0.311
Gene 1978
  EIF4EBP1 log2FC: -0.081
Gene 1982
  EIF4G2 log2FC: 0.237
Gene 2010
  EMD log2FC: -0.178
Gene 2029
  ENSA log2FC: -0.068
Gene 2059
  EPS8 log2FC: 0.516
Gene 2068
  ERCC2 log2FC: -0.566
Gene 2071
  ERCC3 log2FC: -0.084
Gene 2072
  ERCC4 log2FC: 0.186
Gene 2077
  ERF log2FC: 0.135
Gene 2079
  ERH log2FC: -0.238
Gene 2081
  ERN1 log2FC: -0.168
Gene 2113
  ETS1 log2FC: -0.590
Gene 2146
  EZH2 log2FC: 0.722
Gene 2189
  FANCG log2FC: -0.077
Gene 2237
  FEN1 log2FC: -0.980
Gene 2241
  FER log2FC: 0.332
Gene 2247
  FGF2 log2FC: 0.202
Gene 2253
  FGF8 log2FC: -0.131
Gene 2255
  FGF10 log2FC: 0.033
Gene 2260
  FGFR1 log2FC: -0.387
Gene 2261
  FGFR3 log2FC: -0.382
Gene 2263
  FGFR2 log2FC: 1.543
Gene 2273
  FHL1 log2FC: 0.046
Gene 2296
  FOXC1 log2FC: -0.876
Gene 2305
  FOXM1 log2FC: -0.360
Gene 2316
  FLNA log2FC: -0.229
Gene 2342
  FNTB log2FC: -0.574
Gene 2619
  GAS1 log2FC: 0.711
Gene 2620
  GAS2 log2FC: 0.183
Gene 2621
  GAS6 log2FC: -0.052
Gene 2672
  GFI1 log2FC: 0.062
Gene 2770
  GNAI1 log2FC: 1.186
Gene 2771
  GNAI2 log2FC: -0.343
Gene 2773
  GNAI3 log2FC: 0.669
Gene 2810
  SFN log2FC: -1.182
Gene 2827
  GPR3 log2FC: -0.277
Gene 2873
  GPS1 log2FC: -0.145
Gene 2874
  GPS2 log2FC: -0.087
Gene 2932
  GSK3B log2FC: -0.607
Gene 2935
  GSPT1 log2FC: -0.172
Gene 2956
  MSH6 log2FC: 0.235
Gene 2965
  GTF2H1 log2FC: 0.573
Gene 3014
  H2AFX log2FC: -1.128
Gene 3054
  HCFC1 log2FC: -0.769
Gene 3065
  HDAC1 log2FC: -0.487
Gene 3066
  HDAC2 log2FC: 0.164
Gene 3082
  HGF log2FC: -0.369
Gene 3087
  HHEX log2FC: -0.222
Gene 3169
  FOXA1 log2FC: 0.031
Gene 3209
  HOXA13 log2FC: 0.081
Gene 3265
  HRAS log2FC: -0.664
Gene 3275
  PRMT2 log2FC: 0.361
Gene 3280
  HES1 log2FC: -1.195
Gene 3297
  HSF1 log2FC: 0.106
Gene 3306
  HSPA2 log2FC: -1.351
Gene 3320
  HSP90AA1 log2FC: 1.066
Gene 3398
  ID2 log2FC: 1.025
Gene 3399
  ID3 log2FC: -0.237
Gene 3458
  IFNG log2FC: -0.055
Gene 3479
  IGF1 log2FC: 0.046
Gene 3480
  IGF1R log2FC: 0.075
Gene 3481
  IGF2 log2FC: 0.014
Gene 3552
  IL1A log2FC: -0.044
Gene 3553
  IL1B log2FC: -0.057
Gene 3576
  IL8 log2FC: -1.203
Gene 3593
  IL12B log2FC: -0.025
Gene 3609
  ILF3 log2FC: -0.460
Gene 3611
  ILK log2FC: -0.066
Gene 3619
  INCENP log2FC: -0.174
Gene 3622
  ING2 log2FC: 0.424
Gene 3623
  INHA log2FC: -0.101
Gene 3642
  INSM1 log2FC: -0.209
Gene 3643
  INSR log2FC: 0.664
Gene 3664
  IRF6 log2FC: 0.370
Gene 3688
  ITGB1 log2FC: 0.722
Gene 3725
  JUN log2FC: -0.912
Gene 3726
  JUNB log2FC: -0.596
Gene 3832
  KIF11 log2FC: 0.922
Gene 3875
  KRT18 log2FC: -0.481
Gene 3925
  STMN1 log2FC: 0.176
Gene 3976
  LIF log2FC: -1.818
Gene 3978
  LIG1 log2FC: -0.097
Gene 3980
  LIG3 log2FC: -0.509
Gene 3993
  LLGL2 log2FC: -0.345
Gene 4041
  LRP5 log2FC: -0.510
Gene 4085
  MAD2L1 log2FC: 0.081
Gene 4088
  SMAD3 log2FC: 0.254
Gene 4172
  MCM3 log2FC: -0.047
Gene 4174
  MCM5 log2FC: -0.158
Gene 4176
  MCM7 log2FC: 0.104
Gene 4193
  MDM2 log2FC: -0.059
Gene 4194
  MDM4 log2FC: 0.064
Gene 4218
  RAB8A log2FC: -0.531
Gene 4282
  MIF log2FC: 0.242
Gene 4288
  MKI67 log2FC: 0.040
